Like-named read-outs stand apart in the source and are kept apart here. Marks after values point to notes of the source that are not given here.
What was measured:
[1] = Pharmacokinetics study in rabbits after oral Panax notoginseng extract with or without Borneol (plasma, SPE-HPLC-MS); assay type: in vivo, New Zealand rabbits; conditions: for half-life: read-out: t 1/2β; for AUC(0-inf) / AUC(0-t): po
Experimental: Liquid chromatography was carried out on an Agilent 1100 HPLC system with an auto sampler, a quaternary pump and a vacuum degasser (Waldoboro, Frankfurt, Germany). Operations were controlled by Agilent Chemstation 4.2 software (Littleforts, Philadelphia, USA). Separations were achieved on a reversed-phase HPLC column (Zorbax SB-C18 150 × 2.1 mm, 5.0 μm particle size). A solution of acetonitrile and water (V : V, 20 : 80) with 0.1% (V : V) ammonium formate was used as the mobile phase. The flow rate was set at 0.3 mL·min^−1 and the column temperature was 25°C. Under these conditions, NGR1, GRg1, and GRe in plasma samples were separated efficiently without any interferences.
MS^n detection was performed on an Agilent SL trap MS system (Waldoboro, Frankfurt, Germany). The ion source-dependent (electrospray ionization) conditions were the same for all analyses with a spraying voltage of −4500 V in the negative ion mode. The pressure of the nebulizing gas (nitrogen) was set at 35 p.s.i. The flow rate of the drying gas (nitrogen) was set at 7.0 L·min^−1 with the temperature of 325°C. The collision gas (He) for the MS^n mode at trap was set at flow of 4 (instrument unit). The voltage of the capillary was set at 4000 V, and its end plate offset was −500 V. Scan range was from 500 to 1500 m/z.
Frozen plasma and tissue samples were thawed in a water bath at 37°C and were then vortexed followed by centrifuging at 5000 r·min^−1 for 5 min. An aliquot of 1.0 mL of the supernatant from each sample was loaded onto C18 Bond Elute Solid phase extraction (SPE) cartridges (1000 mg, 1 cc reservoir, Varian, Harbor City, CA, USA) pretreated with 2.0 mL hexane, isopropanol, methanol, and water, sequentially. The SPE cartridges were then washed with 1.0 mL water, 20% methanol/water solution, 40% methanol/water solution, and 60% methanol/water solution, sequentially. Finally, analytes were eluted twice with 1.0 mL of 70% methanol/water solution. The eluant was evaporated to dryness under nitrogen. The residues were then reconstituted in 1.0 mL mobile phase. An aliquot of 10 μL was injected into the LC-MS system.
Eighteen rabbits were randomly divided into three groups of 6 subjects and were orally given 3.0 mL·kg^−1 normal saline, 3.0 mL·kg^−1 Panax notoginseng extract, and 3.0 mL·kg^−1 Panax notoginseng extract combined with Borneol, respectively. Plasma samples were collected in heparinized tubes from the central ear artery at 0.0, 5.0, 10.0, 20.0, 30.0, 45.0, 60.0, 75.0, 90.0, 120.0, 180.0, 300.0 and 480.0 min after dose. After each sampling, the same volume of 0.9% saline solution was injected from the ear vein to compensate the loss of blood. The plasma obtained was frozen at −70°C for storage and was processed prior to analysis with the proposed method as described in Section 2.6.
Statistical analysis of the biological data was performed using the Student's t-test. The drug analysis system 2.0 (DAS 2.0, T.C.M., Shanghai, China) was used to calculate the pharmacokinetic parameters, such as the area under curve (AUC), the maximum plasma concentration (C max), the time needed to reach the maximum plasma concentration (t max) and the half-life of absorption, and distribution and elimination (t 1/2Ka, t 1/2α, t 1/2β).

[2] = system: vinblastine-selected Caco-2 cells; assay: Transport studies across Caco-2 monolayers (P app, efflux ratio); assay type: in vitro ADME; conditions: for increase of P app (apical-to-basolateral) by Borneol / increase of P app (basolateral-to-apical) by Borneol: 200 μM Borneol, Caco-2; for P app values: Caco-2 monolayers, without Borneol; for substrate of P-gp: concluded from efflux ratio in vinblastine-selected Caco-2 cells
Experimental: Medium was replaced every 2-3 days. […] The vinblastine-selected Caco-2 cells were cultivated in the presence of 10 nM vinblastine to induce P-glycoprotein (P-gp) expression. […] Prior to the transport study, cytotoxicity of NGR1, GRg1, GRe, and Borneol toward Caco-2 cells was determined using MTT assays.
In transport studies, vinblastine-selected Caco-2 cells were seeded on polycarbonate filter of transwells for 18–21 days before starting transport study, and the monolayers with the transepithelial electrical resistance (TEER) values greater than 300 Ωcm^2 were used. Caco-2 monolayers were rinsed twice with Hanks' balanced salt solution (HBSS) and preincubated in HBSS at 37°C for 30 min before starting experiments. To start the experiments, 500 μM of NGR1, GRg1, and GRe in final concentrations were added to the donor side with or without 200 μM Borneol and then incubated at 37°C. […] After each sampling, 0.1 mL of HBSS was added to the receiver chamber to maintain a constant volume. All the experiments were performed five times in duplicate. The collected samples were stored at −20°C until HPLC analysis. During the above transport studies, the TEER values were also monitored before and at the end of each experiment. Apparent permeability coefficients (P app) were then calculated according to the following equation: (1) Papp=(dC/dt×V)/(A×C0), where dC/dt is the rate of the test compound appearing in the receiver chamber, V is the volume of the solution in the receiver chamber, A is the cell monolayer surface area, and C 0 is the initial concentration of the test compound added in the donor chamber.
The efflux ratio (Er) was calculated using the following equation: (2) Er=Papp(basolateral-apical)/Papp(apical-basolateral).

[3] = oral 3.0 mL·kg^−1 Panax notoginseng extract
[4] = oral 3.0 mL·kg^−1 Panax notoginseng extract combined with Borneol
[5] = Caco-2 Model, 500 μM compound, with or without 200 μM Borneol (see label)
[6] = New Zealand, rabbit, plasma, oral 3.0 mL·kg^−1 Panax notoginseng extract
[7] = New Zealand, rabbit, plasma, oral 3.0 mL·kg^−1 Panax notoginseng extract combined with Borneol

| SMILES | K 10 [1, 3] | K 12 [1, 3] | K 21 [1, 3] | K a [1, 3] | T lag [1, 3] | V/F [1, 3] | t 1/2Ka [1, 3] | t 1/2α [1, 3] | α [1, 3] | β [1, 3] | K 10 [1, 4] | K 12 [1, 4] | K 21 [1, 4] | K a [1, 4] | T lag [1, 4] | V/F [1, 4] | t 1/2Ka [1, 4] | t 1/2α [1, 4] | α [1, 4] | β [1, 4] | also measured |
| --- | --- | --- | --- | --- | --- | --- | --- | --- | --- | --- | --- | --- | --- | --- | --- | --- | --- | --- | --- | --- | --- |
| CC(C)=CCC[C@](C)(O[C@@H]1O[C@H](CO)[C@@H](O)[C@H](O)[C@H]1O)[C@H]1CC[C@]2(C)[C@@H]1[C@H](O)C[C@@H]1[C@@]3(C)CC[C@H](O)C(C)(C)[C@@H]3[C@@H](O[C@@H]3O[C@H](CO)[C@@H](O)[C@H](O)[C@H]3O[C@@H]3OC[C@@H](O)[C@H](O)[C@H]3O)C[C@]12C [NGR1, notoginsenoside R1] | 0.018 ± 0.005 min⁻¹ | 0.000 ± 0.000 min⁻¹ | 0.014 ± 0.007 min⁻¹ | 0.060 ± 0.004 min⁻¹ | 2.38 ± 0.49 min | 27.3 ± 8.6 L/kg | 11.6 ± 2.4 min | 38.5 ± 4.5 min | 0.018 ± 0.008 min⁻¹ | 0.014 ± 0.003 min⁻¹ | 0.009 ± 0.002* min^−1 | 0.015 ± 0.005** min^−1 | 0.011 ± 0.002 min⁻¹ | 0.037 ± 0.005** min^−1 | 1.04 ± 0.21 min | 58.8 ± 6.9 L/kg | 18.8 ± 3.1 min | 28.4 ± 3.2 min | 0.024 ± 0.005 min⁻¹ | 0.010 ± 0.003* min^−1 | AUC0–t [1, 3]: 162.1 ± 42.7 mg/L/min; AUC0–∞ [1, 3]: 164.0 ± 51.8 mg/L/min; C max [1, 3]: 2.12 ± 0.46 mg/L; CL/F [1, 3]: 0.488 ± 0.091 L/min/kg; T max [1, 3]: 45.0 ± 9.8 min; t 1/2β [1, 3]: 47.9 ± 8.1 min; AUC0–t [1, 4]: 306.3 ± 82.9 mg/L/min; AUC0–∞ [1, 4]: 395.3 ± 101.4 mg/L/min; C max [1, 4]: 1.62 ± 0.30 mg/L; CL/F [1, 4]: 0.506 ± 0.027 L/min/kg; T max [1, 4]: 30.0 ± 8.0 min; t 1/2β [1, 4]: 69.3 ± 5.2 min; increase of P app (apical-to-basolateral) by Borneol [2]: 2.9 fold; increase of P app (basolateral-to-apical) by Borneol [2]: 2.9 fold; P app (apical to basolateral) [2, 5]: 0.64 ± 0.08 × 10^−7 cm/s; P app (basolateral to apical) [2, 5]: 0.68 ± 0.12 × 10^−7 cm/s; P app values [2]: less than 10^−6 cm/s; substrate of P-gp [2]: seemed not to be substrates of P-gp; E r ([2]; efflux ratio P app(basolateral-apical)/P app(apical-basolateral), with or without 200 μM Borneol (see label)): 1.06 |
| CC(C)=CCC[C@](C)(O[C@@H]1O[C@H](CO)[C@@H](O)[C@H](O)[C@H]1O)[C@H]1CC[C@]2(C)[C@@H]1[C@H](O)C[C@@H]1[C@@]3(C)CC[C@H](O)C(C)(C)[C@@H]3[C@@H](O[C@@H]3O[C@H](CO)[C@@H](O)[C@H](O)[C@H]3O)C[C@]12C [GRg1, ginsenoside Rg1] | 0.005 ± 0.001 min⁻¹ | 0.011 ± 0.003 min⁻¹ | 0.012 ± 0.003 min⁻¹ | 0.039 ± 0.004 min⁻¹ | 0 ± 0 min | 24.5 ± 4.5 L/kg | 17.8 ± 2.4 min | 38.5 ± 2.5 min | 0.018 ± 0.005 min⁻¹ | 0.010 ± 0.007 min⁻¹ | 0.003 ± 0.00 min⁻¹ | 0.025 ± 0.005** min^−1 | 0.013 ± 0.001 min⁻¹ | 0.051 ± 0.010* min^−1 | 1.25 ± 0.34 min | 35.9 ± 8.7 L/kg | 13.5 ± 4.6 min | 22.3 ± 3.1 min | 0.031 ± 0.011 min⁻¹ | 0.010 ± 0.001 min⁻¹ | Cmax [1, 6]: 2360 ± 150 ng/mL; Tmax [1, 6]: 30 min; Cmax [1, 7]: 2870 ± 340 ng/mL; Tmax [1, 7]: 30 min; CL/F ([1]; New Zealand, rabbit, plasma, oral 3.0 mL·kg^−1 Panax notoginseng extract combined with Borneol, read-out: CL/F): 0.119 ± 0.04 L/min/kg; half-life [1, 7]: 69.3 ± 10.7 min; CL/F ([1]; New Zealand, rabbit, plasma, oral 3.0 mL·kg^−1 Panax notoginseng extract, read-out: CL/F): 0.123 ± 0.067 L/min/kg; half-life [1, 6]: 69.3 ± 12 min; AUC(0-inf) [1, 6]: 10900 ng·h/mL; AUC(0-t) [1, 6]: 8250 ng·h/mL; AUC(0-inf) [1, 7]: 27900 ng·h/mL; AUC(0-t) [1, 7]: 9090 ng·h/mL; increase of P app (apical-to-basolateral) by Borneol [2]: 2.6 fold; increase of P app (basolateral-to-apical) by Borneol [2]: 2.6 fold; P app values [2]: less than 10^−6 cm/s; substrate of P-gp [2]: seemed not to be substrates of P-gp |

From paper PMC3626250, “Effects of Borneol on Pharmacokinetics and Tissue Distribution of Notoginsenoside R1 and Ginsenosides Rg1 and Re in Panax notoginseng in Rabbits” (Journal of Analytical Methods in Chemistry, 2013)
